Experimental data reported in patent US9156831B2, “Chemical compounds” (ASTRAZENECA AB, priority 2013, dated 2015).

Experiments:
HCT116 = test: Cell proliferation assay (MTS); format: cell-based, human
Description: (§1) The sensitivity of a panel of human cancer cell lines to the effects of compounds was determined in a standard proliferation assay.
(§2) Cells were plated in 96 well plates at densities of 1000-6000 cells per well in RPMI media containing 10% FBS. After incubation at 37° C. for 16 hours, various concentrations of compound were added to the assay plates. After incubation for an additional 72 h, the viable cells were determined by the addition of MTS reagent (Promega #3582) to each well for 2 h. MTS is a tetrazolium salt that is bioreduced by metabolically active cells in the presence of an electron coupling reagent to formazan. The formazan product was then quantitated by absorbance at 490 nm, as an indicator of the relative number of live cells. In order to determine the GI50 (concentration at which growth of cells was inhibited by 50%) the relative number of cells present at the time of drug addition was determined by comparison with the MTS readout before the drug was added, and this value was subtracted from the 72 hr value of untreated cells as a measure of cell growth during the assay.

H322 = test: Cell proliferation assay (MTS); format: cell-based, human
Description: as §1
(§3) Cells were plated in 96 well plates at densities of 1000-6000 cells per well in RPMI media containing 10% FBS. After incubation at 37° C. for 16 hours, various concentrations of compound were added to the assay plates. After incubation for an additional 72 h, the viable cells were determined by the addition of MTS reagent (Promega #3582) to each well for 2 h. […] The formazan product was then quantitated by absorbance at 490 nm, as an indicator of the relative number of live cells. In order to determine the GI50 (concentration at which growth of cells was inhibited by 50%) the relative number of cells present at the time of drug addition was determined by comparison with the MTS readout before the drug was added, and this value was subtracted from the 72 hr value of untreated cells as a measure of cell growth during the assay.

RS411 = test: Cell proliferation assay (MTS); format: cell-based, human
Description: as §1, §2

SNU398 = test: Cell proliferation assay (MTS); format: cell-based, human
Description: as §1, §3

PANC1 = test: Cell proliferation assay (MTS); format: cell-based, human
Description: as §1, §3

HARA = test: Cell proliferation assay (MTS); format: cell-based, human
Description: as §1, §2

PANC0327 = test: Cell proliferation assay (MTS); format: cell-based, human
Description: (§4) The sensitivity of a panel of human cancer cell lines to the effects of compounds was determined in a standard proliferation assay. Cell lines were sourced through the AstraZeneca Cell Bank.
as §2

MHCC97L = test: Cell proliferation assay (MTS); format: cell-based, human
Description: as §4, §2

MEC1 = test: Cell proliferation assay (MTS); format: cell-based, human
Description: as §1, §2

HRA19 = test: Cell proliferation assay (MTS); format: cell-based, human
Description: as §4, §2

SMMC7721 = test: Cell proliferation assay (MTS); format: cell-based, human
Description: as §1, §3

HCT15 = test: Cell proliferation assay (MTS); format: cell-based, human
Description: as §1, §2

MDAMB157 = test: Cell proliferation assay (MTS); format: cell-based, human
Description: as §1, §2

HLF = test: Cell proliferation assay (MTS); format: cell-based, human
Description: as §4, §2

SW1990 = test: Cell proliferation assay (MTS); format: cell-based, human
Description: as §1, §2

SNU216 = test: Cell proliferation assay (MTS); format: cell-based, human
Description: as §1, §3

H596 = test: Cell proliferation assay (MTS); format: cell-based, human
Description: as §1, §2

SNU761 = test: Cell proliferation assay (MTS); format: cell-based, human
Description: as §1, §2

H1299 = test: Cell proliferation assay (MTS); format: cell-based, human
Description: as §1, §2

QGY7703 = test: Cell proliferation assay (MTS); format: cell-based, human
Description: as §1, §2

HCC1569 = test: Cell proliferation assay (MTS); format: cell-based, human
Description: as §4, §3

RAJI = test: Cell proliferation assay (MTS); format: cell-based, human
Description: as §1, §2

HCCC9810 = test: Cell proliferation assay (MTS); format: cell-based, human
Description: as §1, §2

HX147 = test: Cell proliferation assay (MTS); format: cell-based, human
Description: as §4, §2

MOLM13 = test: Cell proliferation assay (MTS); format: cell-based, human
Description: as §1, §2

BEL7404 = test: Cell proliferation assay (MTS); format: cell-based, human
Description: as §4, §2

LOVO = test: Cell proliferation assay (MTS); format: cell-based, human
Description: as §1, §2

H2170 = test: Cell proliferation assay (MTS); format: cell-based, human
Description: as §4, §2

SKHEP1 = test: Cell proliferation assay (MTS); format: cell-based, human
Description: as §1, §3

HCC95 = test: Cell proliferation assay (MTS); format: cell-based, human
Description: as §4, §2

IM95M = test: Cell proliferation assay (MTS); format: cell-based, human
Description: as §4, §2

SCABER = test: Cell proliferation assay (MTS); format: cell-based, human
Description: as §4, §2

HLE = test: Cell proliferation assay (MTS); format: cell-based, human
Description: as §1, §3

HT1376 = test: Cell proliferation assay (MTS); format: cell-based, human
Description: as §4, §2

N87 = test: Cell proliferation assay (MTS); format: cell-based, human
Description: as §4, §3

HCC70 xenograft = test: Tumour growth inhibition, HCC70 xenograft model; format: in vivo, mouse; conditions: Example 3 alone 25 mg/kg BID every day; FIG. 13
Description: HCC70 is breast tumour cell line which is deficient in PTEN gene expression. Female Swiss athymic nude mice (swiss nu/nu—AZUK) were transplanted subcutaneously with the breast ductal epithelial tumour cell line HCC70 (ATCC—CRL2315) cells. 1×10^6 cells in 50% matrigel (BD Bioscience) were injected s.c. on the left flank of the animals.
Animals were randomised into groups of 10-15 when tumours reached a volume of ˜200-300 mm^3 and treatment commenced. Animals were dosed for 3-4 weeks by peroral route, with compound in a suitable vehicle at defined doses and schedules. Tumours were measured two-three times weekly by caliper and volume of tumours calculated using elliptical formula (pi/6×width×width×length).

H520 = test: Cell proliferation assay (MTS)
Description: as §1, §2

22RV1 = test: Cell proliferation assay (MTS); format: cell-based, human
Description: as §1, §2

LNCAPCLONEFGC = test: Cell proliferation assay (MTS); format: cell-based, human
Description: as §4, §2

[1] = Homo sapiens, Blood/lymph, PIK3CA WT

SMILES: CCn1nc(C2CCN(C(=O)CCO)CC2)nc1-c1cnc(N)c(-c2nnc(C(C)(C)C)o2)n1 [Example 3, 1-(4-(5-(5-amino-6-(5-tert-butyl-1,3,4-oxadiazol-2-yl)pyrazin-2-yl)-1-ethyl-1H-1,2,4-triazol-3-yl)piperidin-1-yl)-3-hydroxypropan-1-one]
- Category (HCT116): Resistant (resistant (GI50>1.0 μM))
- GI50 (HCT116; Homo sapiens, HCT-116, Colon, PIK3CA MUT): 30 µM
- Category (H322): Resistant (resistant (GI50>1.0 μM))
- GI50 (H322; Homo sapiens, NCI-H322, Lung, PIK3CA WT): 8.23 µM
- Category (RS411): Sensitive (sensitive (GI50<=1.0 μM))
- GI50 (RS411; Homo sapiens, RS4-11, Blood/lymph, PIK3CA WT): 90.3 nM
- Category (SNU398): Resistant (resistant (GI50>1.0 μM))
- GI50 (SNU398; Homo sapiens, SNU-398, Liver, PIK3CA WT): 30 µM
- Category (PANC1): Resistant (resistant (GI50>1.0 μM))
- GI50 (PANC1; Homo sapiens, PANC-1, Pancreas, PIK3CA WT): 5.34 µM
- Category (HARA): Resistant (resistant (GI50>1.0 μM))
- GI50 (HARA; Homo sapiens, Lung, PIK3CA WT): 1910 nM
- Category (PANC0327): Resistant (resistant (GI50>1.0 μM))
- GI50 (PANC0327; Homo sapiens, PANC-03-27, Pancreas, PIK3CA WT): 8.03 µM
- Category (MHCC97L): Resistant (resistant (GI50>1.0 μM))
- GI50 (MHCC97L; Homo sapiens, Liver, PIK3CA WT): 3.35 µM
- Category (MEC1): Resistant (resistant (GI50>1.0 μM))
- GI50 (MEC1; [1]): 30 µM
- Category (HRA19): Sensitive (sensitive (GI50<=1.0 μM))
- GI50 (HRA19; Homo sapiens, Rectum, PIK3CA MUT): 393 nM
- Category (SMMC7721): Resistant (resistant (GI50>1.0 μM))
- GI50 (SMMC7721; Homo sapiens, SMMC-7721, Liver, PIK3CA WT): 30 µM
- Category (HCT15): Resistant (resistant (GI50>1.0 μM))
- GI50 (HCT15; Homo sapiens, HCT-15, Colon, PIK3CA MUT): 7.27 µM
- Category (MDAMB157): Resistant (resistant (GI50>1.0 μM))
- GI50 (MDAMB157; Homo sapiens, MDA-MB-157, Breast, PIK3CA WT): 30 µM
- Category (HLF): Resistant (resistant (GI50>1.0 μM))
- GI50 (HLF; Homo sapiens, Liver, PIK3CA WT): 30 µM
- Category (SW1990): Resistant (resistant (GI50>1.0 μM))
- GI50 (SW1990; Homo sapiens, Pancreas, PIK3CA WT): 28.3 µM
- Category (SNU216): Resistant (resistant (GI50>1.0 μM))
- GI50 (SNU216; Homo sapiens, SNU-216, Stomach, PIK3CA WT): 1070 nM
- Category (H596): Sensitive (sensitive (GI50<=1.0 μM))
- GI50 (H596; Homo sapiens, NCI-H596, Lung, PIK3CA MUT): 302 nM
- Category (SNU761): Resistant (resistant (GI50>1.0 μM))
- GI50 (SNU761; Homo sapiens, Liver, PIK3CA WT): 18.5 µM
- Category (H1299): Resistant (resistant (GI50>1.0 μM))
- GI50 (H1299; Homo sapiens, NCI-H1299, Lung, PIK3CA WT): 30 µM
- Category (QGY7703): Resistant (resistant (GI50>1.0 μM))
- GI50 (QGY7703; Homo sapiens, QGY-7703, Liver, PIK3CA WT): 11.1 µM
- Category (HCC1569): Resistant (resistant (GI50>1.0 μM))
- GI50 (HCC1569; Homo sapiens, Breast, PIK3CA WT): 1370 nM
- Category (RAJI): Resistant (resistant (GI50>1.0 μM))
- GI50 (RAJI; [1]): 30 µM
- Category (HCCC9810): Resistant (resistant (GI50>1.0 μM))
- GI50 (HCCC9810; Homo sapiens, Bile duct, PIK3CA WT): 10 µM
- Category (HX147): Resistant (resistant (GI50>1.0 μM))
- GI50 (HX147; Homo sapiens, Lung, PIK3CA WT): 30 µM
- Category (MOLM13): Resistant (resistant (GI50>1.0 μM))
- GI50 (MOLM13; Homo sapiens, MOLM-13, Blood/lymph, PIK3CA WT): 1220 nM
- Category (BEL7404): Resistant (resistant (GI50>1.0 μM))
- GI50 (BEL7404; Homo sapiens, BEL-7404, Liver, PIK3CA WT): 14.9 µM
- Category (LOVO): Resistant (resistant (GI50>1.0 μM))
- GI50 (LOVO; Homo sapiens, Colon, PIK3CA WT): 18.6 µM
- Category (H2170): Resistant (resistant (GI50>1.0 μM))
- GI50 (H2170; Homo sapiens, NCI-H2170, Lung, PIK3CA WT): 7.64 µM
- Category (SKHEP1): Resistant (resistant (GI50>1.0 μM))
- GI50 (SKHEP1; Homo sapiens, SK-HEP1, Liver, PIK3CA WT): 30 µM
- Category (HCC95): Resistant (resistant (GI50>1.0 μM))
- GI50 (HCC95; Homo sapiens, Lung, PIK3CA WT): 3.11 µM
- Category (IM95M): Sensitive (sensitive (GI50<=1.0 μM))
- GI50 (IM95M; Homo sapiens, Stomach, PIK3CA MUT): 436 nM
- Category (SCABER): Resistant (resistant (GI50>1.0 μM))
- GI50 (SCABER; Homo sapiens, Bladder, PIK3CA WT): 12.4 µM
- Category (HLE): Resistant (resistant (GI50>1.0 μM))
- GI50 (HLE; Homo sapiens, Liver, PIK3CA WT): 13.5 µM
- Category (HT1376): Resistant (resistant (GI50>1.0 μM))
- GI50 (HT1376; Homo sapiens, HT-1376, Bladder, PIK3CA WT): 8.2 µM
- Category (N87): Resistant (resistant (GI50>1.0 μM))
- GI50 (N87; Homo sapiens, Stomach, PIK3CA WT): 1300 nM
- tumour growth (HCC70 xenograft): inhibited growth more strongly
- Category (H520; H520): Resistant (resistant (GI50>1.0 μM))
- GI50 (H520; Homo sapiens, NCI-H520): 6.62 µM
- Category (22RV1): Resistant (resistant (GI50>1.0 μM))
- GI50 (22RV1; Homo sapiens, Prostate, PIK3CA MUT): 4.14 µM
- Category (LNCAPCLONEFGC): Resistant (resistant (GI50>1.0 μM))
- GI50 (LNCAPCLONEFGC; Homo sapiens, LNCaP-Clone-FGC, Prostate, PIK3CA WT): 3.01 µM
